Source: patent publication US12497365B2, “4-pyridinyl formamide compound or derivative thereof, preparation method therefor, herbicidal composition and use thereof” (Qingdao Kingagroot Chemical Compound Co., Ltd., priority 2019, dated 2025)

Legend:
Experiment in all cases: Weeding effect in post-emergence stage
Assay type in all cases: in vivo
Conditions in all cases: active ingredient 2000 g/ha, 3 weeks after application, fresh weight control rate
[1] = system: Amaranthus retroflexus L.
In short: (§1)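 Greenhouse post-emergence test: 2-3 leaf plants sprayed at 125-2000 g/ha, then fresh weight control rate scored at 3 weeks.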

Chenopodium album = system: Chenopodium album
In short: as §1

Descurainia sophia = system: Descurainia sophia
In short: as §1

Abutilon theophrasti = system: Abutilon theophrasti
In short: as §1

Cc1c(C(=O)Nc2nnnn2C)ccnc1-c1ccc(F)cc1 [Compound 1-194]
Weeding effect, activity level (growth control rate), Amaranthus retroflexus L. [1]: 5 (Level 5: growth control rate is above 85%)
Weeding effect, activity level (growth control rate), Chenopodium album (Chenopodium album): 5 (Level 5: growth control rate is above 85%)
Weeding effect, activity level (growth control rate), Descurainia sophia (Descurainia sophia): 5 (Level 5: growth control rate is above 85%)
Weeding effect, activity level (growth control rate), Abutilon theophrasti (Abutilon theophrasti): 5 (Level 5: growth control rate is above 85%)

Cn1nnnc1NC(=O)c1ccnc(-c2ccc(F)cc2)c1F [Compound 1-195]
Weeding effect, activity level (growth control rate), Amaranthus retroflexus L. [1]: 5 (Level 5: growth control rate is above 85%)
Weeding effect, activity level (growth control rate), Chenopodium album (Chenopodium album): 5 (Level 5: growth control rate is above 85%)
Weeding effect, activity level (growth control rate), Descurainia sophia (Descurainia sophia): 5 (Level 5: growth control rate is above 85%)
Weeding effect, activity level (growth control rate), Abutilon theophrasti (Abutilon theophrasti): 5 (Level 5: growth control rate is above 85%)

Cn1nnnc1NC(=O)c1ccnc(-c2ccc(F)cc2)c1Br [Compound 1-196]
Weeding effect, activity level (growth control rate), Amaranthus retroflexus L. [1]: 5 (Level 5: growth control rate is above 85%)
Weeding effect, activity level (growth control rate), Chenopodium album (Chenopodium album): 5 (Level 5: growth control rate is above 85%)
Weeding effect, activity level (growth control rate), Descurainia sophia (Descurainia sophia): 5 (Level 5: growth control rate is above 85%)
Weeding effect, activity level (growth control rate), Abutilon theophrasti (Abutilon theophrasti): 5 (Level 5: growth control rate is above 85%)

CC(C)c1c(C(=O)Nc2nnnn2C)ccnc1-c1ccc(F)cc1 [Compound 1-197]
Weeding effect, activity level (growth control rate), Amaranthus retroflexus L. [1]: 5 (Level 5: growth control rate is above 85%)
Weeding effect, activity level (growth control rate), Chenopodium album (Chenopodium album): 5 (Level 5: growth control rate is above 85%)
Weeding effect, activity level (growth control rate), Descurainia sophia (Descurainia sophia): 5 (Level 5: growth control rate is above 85%)
Weeding effect, activity level (growth control rate), Abutilon theophrasti (Abutilon theophrasti): 5 (Level 5: growth control rate is above 85%)

Cn1nnnc1NC(=O)c1ccnc(-c2ccc(F)cc2)c1C(F)(F)F [Compound 1-198]
Weeding effect, activity level (growth control rate), Amaranthus retroflexus L. [1]: 5 (Level 5: growth control rate is above 85%)
Weeding effect, activity level (growth control rate), Chenopodium album (Chenopodium album): 5 (Level 5: growth control rate is above 85%)
Weeding effect, activity level (growth control rate), Descurainia sophia (Descurainia sophia): 5 (Level 5: growth control rate is above 85%)
Weeding effect, activity level (growth control rate), Abutilon theophrasti (Abutilon theophrasti): 5 (Level 5: growth control rate is above 85%)

Cn1nnnc1NC(=O)c1ccnc(-c2ccc(F)cc2)c1-c1ccccc1 [Compound 1-199]
Weeding effect, activity level (growth control rate), Amaranthus retroflexus L. [1]: 5 (Level 5: growth control rate is above 85%)
Weeding effect, activity level (growth control rate), Chenopodium album (Chenopodium album): 5 (Level 5: growth control rate is above 85%)
Weeding effect, activity level (growth control rate), Descurainia sophia (Descurainia sophia): 5 (Level 5: growth control rate is above 85%)
Weeding effect, activity level (growth control rate), Abutilon theophrasti (Abutilon theophrasti): 5 (Level 5: growth control rate is above 85%)

COc1c(C(=O)Nc2nnnn2C)ccnc1-c1ccc(F)cc1 [Compound 1-200]
Weeding effect, activity level (growth control rate), Amaranthus retroflexus L. [1]: 5 (Level 5: growth control rate is above 85%)
Weeding effect, activity level (growth control rate), Chenopodium album (Chenopodium album): 5 (Level 5: growth control rate is above 85%)
Weeding effect, activity level (growth control rate), Descurainia sophia (Descurainia sophia): 5 (Level 5: growth control rate is above 85%)
Weeding effect, activity level (growth control rate), Abutilon theophrasti (Abutilon theophrasti): 5 (Level 5: growth control rate is above 85%)

CCOc1c(C(=O)Nc2nnnn2C)ccnc1-c1ccc(F)cc1 [Compound 1-201]
Weeding effect, activity level (growth control rate), Amaranthus retroflexus L. [1]: 5 (Level 5: growth control rate is above 85%)
Weeding effect, activity level (growth control rate), Chenopodium album (Chenopodium album): 5 (Level 5: growth control rate is above 85%)
Weeding effect, activity level (growth control rate), Descurainia sophia (Descurainia sophia): 5 (Level 5: growth control rate is above 85%)
Weeding effect, activity level (growth control rate), Abutilon theophrasti (Abutilon theophrasti): 5 (Level 5: growth control rate is above 85%)

Cn1nnnc1NC(=O)c1ccnc(-c2ccc(F)cc2)c1OCC(F)(F)F [Compound 1-202]
Weeding effect, activity level (growth control rate), Amaranthus retroflexus L. [1]: 5 (Level 5: growth control rate is above 85%)
Weeding effect, activity level (growth control rate), Chenopodium album (Chenopodium album): 5 (Level 5: growth control rate is above 85%)
Weeding effect, activity level (growth control rate), Descurainia sophia (Descurainia sophia): 5 (Level 5: growth control rate is above 85%)
Weeding effect, activity level (growth control rate), Abutilon theophrasti (Abutilon theophrasti): 5 (Level 5: growth control rate is above 85%)

CSc1c(C(=O)Nc2nnnn2C)ccnc1-c1ccc(F)cc1 [Compound 1-203]
Weeding effect, activity level (growth control rate), Amaranthus retroflexus L. [1]: 5 (Level 5: growth control rate is above 85%)
Weeding effect, activity level (growth control rate), Chenopodium album (Chenopodium album): 5 (Level 5: growth control rate is above 85%)
Weeding effect, activity level (growth control rate), Descurainia sophia (Descurainia sophia): 5 (Level 5: growth control rate is above 85%)
Weeding effect, activity level (growth control rate), Abutilon theophrasti (Abutilon theophrasti): 5 (Level 5: growth control rate is above 85%)

CCSc1c(C(=O)Nc2nnnn2C)ccnc1-c1ccc(F)cc1 [Compound 1-204]
Weeding effect, activity level (growth control rate), Amaranthus retroflexus L. [1]: 5 (Level 5: growth control rate is above 85%)
Weeding effect, activity level (growth control rate), Chenopodium album (Chenopodium album): 5 (Level 5: growth control rate is above 85%)
Weeding effect, activity level (growth control rate), Descurainia sophia (Descurainia sophia): 5 (Level 5: growth control rate is above 85%)
Weeding effect, activity level (growth control rate), Abutilon theophrasti (Abutilon theophrasti): 5 (Level 5: growth control rate is above 85%)

Cn1nnnc1NC(=O)c1ccnc(-c2ccc(F)cc2)c1[S+](C)[O-] (centres unmarked) [Compound 1-205]
Weeding effect, activity level (growth control rate), Amaranthus retroflexus L. [1]: 5 (Level 5: growth control rate is above 85%)
Weeding effect, activity level (growth control rate), Chenopodium album (Chenopodium album): 5 (Level 5: growth control rate is above 85%)
Weeding effect, activity level (growth control rate), Descurainia sophia (Descurainia sophia): 5 (Level 5: growth control rate is above 85%)
Weeding effect, activity level (growth control rate), Abutilon theophrasti (Abutilon theophrasti): 5 (Level 5: growth control rate is above 85%)

CC[S+]([O-])c1c(C(=O)Nc2nnnn2C)ccnc1-c1ccc(F)cc1 (centres unmarked) [Compound 1-206]
Weeding effect, activity level (growth control rate), Amaranthus retroflexus L. [1]: 5 (Level 5: growth control rate is above 85%)
Weeding effect, activity level (growth control rate), Chenopodium album (Chenopodium album): 5 (Level 5: growth control rate is above 85%)
Weeding effect, activity level (growth control rate), Descurainia sophia (Descurainia sophia): 5 (Level 5: growth control rate is above 85%)
Weeding effect, activity level (growth control rate), Abutilon theophrasti (Abutilon theophrasti): 5 (Level 5: growth control rate is above 85%)

Cn1nnnc1NC(=O)c1ccnc(-c2ccc(F)cc2)c1S(C)(=O)=O [Compound 1-207]
Weeding effect, activity level (growth control rate), Amaranthus retroflexus L. [1]: 5 (Level 5: growth control rate is above 85%)
Weeding effect, activity level (growth control rate), Chenopodium album (Chenopodium album): 5 (Level 5: growth control rate is above 85%)
Weeding effect, activity level (growth control rate), Descurainia sophia (Descurainia sophia): 5 (Level 5: growth control rate is above 85%)
Weeding effect, activity level (growth control rate), Abutilon theophrasti (Abutilon theophrasti): 5 (Level 5: growth control rate is above 85%)
